Results published in patent US8512789B2, “High-potency sweetener composition with dietary fiber and compositions sweetened therewith” (The Coca-Cola Company, priority 2005, dated 2013).

How the values were obtained:
[1] = Sensory evaluation of sweetness linger by a panel of experts; assay type: in vivo; set-up: key: 0=no sweetness linger; 1=very slight sweetness linger; 2 slight sweetness linger; 3 moderate sweetness linger; 4=moderately high sweetness linger; 5 high sweetness linger
Method: In a particular embodiment, a panel of assessors is used to measure the reduction of sweetness linger. Briefly described, a panel of assessors (generally 8 to 12 individuals) is trained to evaluate sweetness perception and measure sweetness at several time points from when the sample is initially taken into the mouth until 3 minutes after it has been expectorated. […] A decrease in score for a time point measured after the sample has cleared the mouth indicates there has been a reduction in sweetness perception.
The panel of assessors may be trained using procedures well known to those of ordinary skill in the art. In a particular embodiment, the panel of assessors may be trained using the Spectrum™ Descriptive Analysis Method (Meilgaard et al, Sensory Evaluation Techniques, 3rd edition, Chapter 11). Desirably, the focus of training should be the recognition of and the measure of the basic tastes; specifically, sweet. […]
Sensory evaluation of the samples prepared in Example Set C was carried out under the following protocol, similar to that described hereinabove. […] Immediately upon sensing maximal sweetness, the sample was expectorated, the mouth was rinsed with water and the rate of sweetness decay (“Sweetness Linger”) was measured, where attention was focused on the sweetness 3-4 min after the water rinse. […]

[2] = Rate of dissolution of rebaudioside A polymorph and amorphous forms in H2O at 25° C.; assay type: physicochemical

| Substance | Sweetness Linger rating ([1]; Example Set G: citric acid/potassium citrate composition equivalent to diet lemon-lime beverage, 400 ppm REBA base (sugar control 8 g/100 ml), scale 0-5, sweetness 3-4 min after water rinse) | Sweetness Linger rating ([1]; Example Set H: carbon-treated water with phosphoric acid (75%), pH 2.4-2.5, REBA base (sugar control 10 g/100 ml), scale 0-5) | Rate of dissolution in H2O at 25° C. [2] | Rate of dissolution in H2O at 25° C. (in words) [2] |
| --- | --- | --- | --- | --- |
| rebaudioside A | 5 | 5 | – | – |
| rebaudioside A [Form 1] | – | – | (<0.2%/ %/60 minutes | Very low |
| rebaudioside A [Form 2] | – | – | – | Intermediate |
| rebaudioside A [Form 3] | – | – | (>30%/ %/5 minutes | High |
| rebaudioside A [Form 4] | – | – | (>35%/ %/5 minutes | High |
